Conditions: Liquid, Vibrating tube method

Cc1ccccc1 [toluene]
mass density [kg/m3]
Conditions	100 kPa	5000 kPa	10000 kPa	15000 kPa	20000 kPa	25000 kPa	30000 kPa	35000 kPa	40000 kPa	45000 kPa
283.15 K	876.1	879.5	882.9	886.1	889.3	892.4	895.3	898.2	901	903.7
293.15 K	866.8	870.5	874.1	877.5	880.8	884	887.1	890.1	893	895.9
303.15 K	857.5	861.4	865.2	868.8	872.3	875.7	879	882.1	885.2	888.1
313.15 K	848.1	852.2	856.2	860	863.7	867.3	870.7	874	877.2	880.3
323.15 K	838.6	843	847.2	851.3	855.2	858.9	862.5	866	869.4	872.6
333.15 K	828.8	833.5	838	842.3	846.4	850.4	854.2	857.9	861.4	864.8
343.15 K	819.2	824.1	829	833.5	837.9	842.1	846	849.9	853.5	857
353.15 K	809.4	814.7	819.9	824.7	829.3	833.7	837.9	841.9	845.7	849.4

CCO [ethanol]
mass density [kg/m3]
Conditions	100 kPa	5000 kPa	10000 kPa	15000 kPa	20000 kPa	25000 kPa	30000 kPa	35000 kPa	40000 kPa	45000 kPa
283.15 K	798	802	805.9	809.5	813	816.4	819.7	822.8	825.9	828.8
293.15 K	789.5	793.7	797.8	801.6	805.3	808.9	812.3	815.6	818.7	821.8
303.15 K	780.9	785.3	789.6	793.7	797.5	801.3	804.8	808.2	811.5	814.7
313.15 K	772.1	776.8	781.3	785.6	789.6	793.5	797.2	800.8	804.2	807.6
323.15 K	763.3	768.3	773	777.6	781.8	785.9	789.7	793.5	797.1	800.5
333.15 K	754	759.3	764.3	769.1	773.6	777.8	781.9	785.8	789.5	793.1
343.15 K	744.5	750.1	755.5	760.5	765.3	769.8	774	778.1	782	785.7
353.15 K	–	740.6	746.4	751.7	756.7	761.5	766	770.2	774.3	778.2
